Assay results from ChEMBL document CHEMBL6120979, “Cell penetrable peptide nucleic acids targeting PDZK1IP1 with anti-inflammatory potential in human keratinocytes” (Bioorg Med Chem Lett, 2025).
Calls of active or inactive are those of the source. The rule behind the calls is not given here.

How the values were obtained:
RNA [1] = test: Binding affinity to complementary RNA (unknown origin) in sodium phosphate buffer assessed as melting temperature of PNA-RNA duplex; format: nucleic-acid assay
RNA [2] = test: Binding affinity to complementary RNA (unknown origin) with mismatch bases in sodium phosphate buffer; format: nucleic-acid assay
Keratinocyte [3] = test: Inhibition of PDZK1IP1 mRNA expression in human keratinocytes at 1 uM incubated for 24 hrs by RT-qPCR analysis; format: functional, cell-based
Keratinocyte [4] = test: Inhibition of PDZK1IP1 mRNA expression in human keratinocytes at 0.01 to 1 uM incubated for 24 hrs by RT-qPCR analysis; format: functional, cell-based; settings: dose 0.01-1 µM
Keratinocyte [5] = test: Inhibition of PDZK1IP1 mRNA expression in human keratinocytes incubated for 24 hrs by RT-qPCR analysis; format: functional, cell-based

Tm (RNA [1]) [°C] | Activity (RNA [2]) | Compound | inhibition (Keratinocyte [3]) | inhibition (Keratinocyte [4]) | inhibition (Keratinocyte [5])
75 | inactive | Cc1cn(CC(=O)N(CCNC(=O)CN(CCNC(=O)CN(CCNC(=O)CN(CCNC(=O)CN(CCNC(=O)CN(CCNC(=O)CN(CCNC(=O)CN(CCNC(=O)CN(CCNC(=O)CN(CCNC(=O)CN(CCNC(=O)CN(CCNC(=O)CN(CCNC(=O)CN(CCN)C(=O)Cn2cc(C)c(=O)[nH]c2=O)C(=O)Cn2cnc3c(=O)[nH]c(NCCCCCCN)nc32)C(=O)Cn2cc(C)c(=O)[nH]c2=O)C(=O)Cn2cnc3c(=O)[nH]c(NCCCCCCN)nc32)C(=O)Cn2ccc(N)nc2=O)C(=O)Cn2cnc3c(N)nc(NCCCCCN)nc32)C(=O)Cn2cnc3c(=O)[nH]c(N)nc32)C(=O)Cn2cnc3c(=O)[nH]c(NCCCCCCN)nc32)C(=O)Cn2ccc(N)nc2=O)C(=O)Cn2cc(C)c(=O)[nH]c2=O)C(=O)Cn2ccc(N)nc2=O)C(=O)Cn2cc3cc(COCCN)[nH]c3nc2=O)C(=O)Cn2ccc(N)nc2=O)CC(=O)O)c(=O)[nH]c1=O | Active | Mild_effect; Mild Dose Dependent Effect Observed | –
74.1 | inactive | Cc1cn(CC(=O)N(CCNC(=O)CN(CCNC(=O)CN(CCNC(=O)CN(CCNC(=O)CN(CCNC(=O)CN(CCNC(=O)CN(CCNC(=O)CN(CCNC(=O)CN(CCNC(=O)CN(CCNC(=O)CN(CCNC(=O)CN(CCNC(=O)CN(CCN)C(=O)Cn2cnc3c(N)nc(NCCCCCN)nc32)C(=O)Cn2ccc(N)nc2=O)C(=O)Cn2cc(C)c(=O)[nH]c2=O)C(=O)Cn2ccc(N)nc2=O)C(=O)Cn2cnc3c(N)nc(NCCCCCN)nc32)C(=O)Cn2ccc(N)nc2=O)C(=O)Cn2cnc3c(=O)[nH]c(NCCCCCCN)nc32)C(=O)Cn2cnc3c(=O)[nH]c(N)nc32)C(=O)Cn2cc3cc(COCCN)[nH]c3nc2=O)C(=O)Cn2cc(C)c(=O)[nH]c2=O)C(=O)Cn2ccc(N)nc2=O)C(=O)Cn2cc3cc(COCCN)[nH]c3nc2=O)CC(=O)NCCN(CC(=O)O)C(=O)Cn2ccc(N)nc2=O)c(=O)[nH]c1=O | Active | Mild_effect; Mild Dose Dependent Effect Observed | –
> 90 | inactive | Cc1cn(CC(=O)N(CCN)CC(=O)NCCN(CC(=O)NCCN(CC(=O)NCCN(CC(=O)NCCN(CC(=O)NCCN(CC(=O)NCCN(CC(=O)NCCN(CC(=O)NCCN(CC(=O)NCCN(CC(=O)NCCN(CC(=O)NCCN(CC(=O)NCCN(CC(=O)NCCN(CC(=O)NCCN(CC(=O)NCCN(CC(=O)NCCN(CC(=O)NCCN(CC(=O)NCCN(CC(=O)NCCN(CC(=O)O)C(=O)Cn2cnc3c(=O)[nH]c(NCCCCCCN)nc32)C(=O)Cn2ccc3c(=O)[nH]c(N)nc32)C(=O)Cn2cnc3c(=O)[nH]c(N)nc32)C(=O)Cn2cnc3c(=O)[nH]c(NCCCCCCN)nc32)C(=O)Cn2cc(C)c(=O)[nH]c2=O)C(=O)Cn2ccc(N)nc2=O)C(=O)Cn2ccc(N)nc2=O)C(=O)Cn2ccc(N)nc2=O)C(=O)Cn2cc(C)c(=O)[nH]c2=O)C(=O)Cn2cc3cc(COCCN)[nH]c3nc2=O)C(=O)Cn2cnc3c(=O)[nH]c(N)nc32)C(=O)Cn2cnc3c(=O)[nH]c(N)nc32)C(=O)Cn2cnc3c(N)nc(NCCCCCN)nc32)C(=O)Cn2ccc(N)nc2=O)C(=O)Cn2cnc3c(=O)[nH]c(N)nc32)C(=O)Cn2cc(C)c(=O)[nH]c2=O)C(=O)Cn2cnc3c(=O)[nH]c(N)nc32)C(=O)Cn2cc(C)c(=O)[nH]c2=O)C(=O)Cn2cnc3c(=O)[nH]c(N)nc32)c(=O)[nH]c1=O | – | – | Dose-dependent-effect
